Source: PubChem BioAssay AID2060333 (Molecular Pharmacology Branch, DTP, NCI, 2025)

Test system: 845751-090-R-J2-PDC tumor spheroid viability
Assay: Anticancer human tumor 845751-090-R-J2-PDC patient-derived head and neck squamous carcinoma cell line growth inhibition [IpAb]
Details: spheroids with HUVEC and MSC; for IC50: curve of first compound; for viability, T/C: stronger effect = lower value
Procedure, shortened: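 Multi-cell spheroids of 60% tumour cells, 25% HUVEC and 15% MSC in ultra-low-attachment U-bottom wells, treated with agents combined with ipatasertib or abemaciclib. Half-log ranges top out near clinical Cmax, or 10 microM when Cmax is unknown.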

[1] = second compound 0.01 µM, first compound 0.00949 µM
[2] = second compound 0.01 µM, first compound 0.03 µM
[3] = second compound 0.01 µM, first compound 0.0949 µM
[4] = second compound 0.01 µM, first compound 0.3 µM
[5] = second compound 0.0316 µM, first compound 0.00949 µM
[6] = second compound 0.0316 µM, first compound 0.03 µM
[7] = second compound 0.0316 µM, first compound 0.0949 µM
[8] = second compound 0.0316 µM, first compound 0.3 µM
[9] = second compound 0.1 µM, first compound 0.00949 µM
[10] = second compound 0.1 µM, first compound 0.03 µM
[11] = second compound 0.1 µM, first compound 0.0949 µM
[12] = second compound 0.1 µM, first compound 0.3 µM
[13] = second compound 0.316 µM, first compound 0.00949 µM
[14] = second compound 0.316 µM, first compound 0.03 µM
[15] = second compound 0.316 µM, first compound 0.0949 µM
[16] = second compound 0.316 µM, first compound 0.3 µM
[17] = second compound 1 µM, first compound 0.00949 µM
[18] = second compound 1 µM, first compound 0.03 µM
[19] = second compound 1 µM, first compound 0.0949 µM
[20] = second compound 1 µM, first compound 0.3 µM
[21] = second compound 0.01 µM, first compound 0.0316 µM
[22] = second compound 0.01 µM, first compound 0.1 µM
[23] = second compound 0.01 µM, first compound 0.316 µM
[24] = second compound 0.01 µM, first compound 1 µM
[25] = second compound 0.01 µM, first compound 3.16 µM
[26] = second compound 0.01 µM, first compound 10 µM
[27] = second compound 0.0316 µM, first compound 0.0316 µM
[28] = second compound 0.0316 µM, first compound 0.1 µM
[29] = second compound 0.0316 µM, first compound 0.316 µM
[30] = second compound 0.0316 µM, first compound 1 µM
[31] = second compound 0.0316 µM, first compound 3.16 µM
[32] = second compound 0.0316 µM, first compound 10 µM
[33] = second compound 0.1 µM, first compound 0.0316 µM
[34] = second compound 0.1 µM, first compound 0.1 µM
[35] = second compound 0.1 µM, first compound 0.316 µM
[36] = second compound 0.1 µM, first compound 1 µM
[37] = second compound 0.1 µM, first compound 3.16 µM
[38] = second compound 0.1 µM, first compound 10 µM
[39] = second compound 0.316 µM, first compound 0.0316 µM
[40] = second compound 0.316 µM, first compound 0.1 µM
[41] = second compound 0.316 µM, first compound 0.316 µM
[42] = second compound 0.316 µM, first compound 1 µM
[43] = second compound 0.316 µM, first compound 3.16 µM
[44] = second compound 0.316 µM, first compound 10 µM
[45] = second compound 1 µM, first compound 0.0316 µM
[46] = second compound 1 µM, first compound 0.1 µM
[47] = second compound 1 µM, first compound 0.316 µM
[48] = second compound 1 µM, first compound 1 µM
[49] = second compound 1 µM, first compound 3.16 µM
[50] = second compound 1 µM, first compound 10 µM
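Further: spheroids exposed to compounds for 7 days before readout.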
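Wherever viability, T/C is given: CTG3D luminescence normalised so that 100% = DMSO vehicle control.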

CC(=O)c1c(C)c2cnc(Nc3ccc(N4CCNCC4)cn3)nc2n(C2CCCC2)c1=O + CCN1CCN(Cc2ccc(Nc3ncc(F)c(-c4cc(F)c5nc(C)n(C(C)C)c5c4)n3)nc2)CC1
IC50 (second compound 0.01 µM): > 300 nM
IC50 (second compound 0.0316 µM): > 300 nM
IC50 (second compound 0.1 µM): > 300 nM
IC50 (second compound 0.316 µM): > 300 nM
IC50 (second compound 1 µM): > 300 nM
viability, T/C (second compound 0.01 µM, first compound 0.000949 µM): 115%
viability, T/C (second compound 0.01 µM, first compound 0.003 µM): 93.8%
viability, T/C [1]: 84.8%
viability, T/C [2]: 91%
viability, T/C [3]: 93.4%
viability, T/C [4]: 76.7%
viability, T/C (second compound 0.0316 µM, first compound 0.000949 µM): 77.2%
viability, T/C (second compound 0.0316 µM, first compound 0.003 µM): 62.8%
viability, T/C [5]: 63.6%
viability, T/C [6]: 73.9%
viability, T/C [7]: 65.5%
viability, T/C [8]: 59.2%
viability, T/C (second compound 0.1 µM, first compound 0.000949 µM): 49.8%
viability, T/C (second compound 0.1 µM, first compound 0.003 µM): 71.8%
viability, T/C [9]: 75.4%
viability, T/C [10]: 71.2%
viability, T/C [11]: 75.9%
viability, T/C [12]: 65.8%
viability, T/C (second compound 0.316 µM, first compound 0.000949 µM): 53.1%
viability, T/C (second compound 0.316 µM, first compound 0.003 µM): 69.7%
viability, T/C [13]: 88%
viability, T/C [14]: 81.7%
viability, T/C [15]: 61%
viability, T/C [16]: 50.6%
viability, T/C (second compound 1 µM, first compound 0.000949 µM): 90.4%
viability, T/C (second compound 1 µM, first compound 0.003 µM): 86.4%
viability, T/C [17]: 99.5%
viability, T/C [18]: 77.7%
viability, T/C [19]: 70.9%
viability, T/C [20]: 53.6%

CC(C)(C)c1cnc(CSc2cnc(NC(=O)C3CCNCC3)s2)o1 + CCN1CCN(Cc2ccc(Nc3ncc(F)c(-c4cc(F)c5nc(C)n(C(C)C)c5c4)n3)nc2)CC1
IC50 (second compound 0.01 µM): 97.3 nM
IC50 (second compound 0.0316 µM): 71.4 nM
IC50 (second compound 0.1 µM): 51.2 nM
IC50 (second compound 0.316 µM): 36.5 nM
IC50 (second compound 1 µM): 38.4 nM
viability, T/C [1]: 112%
viability, T/C [2]: 91.9%
viability, T/C [3]: 55%
viability, T/C [4]: 1.28%
viability, T/C (second compound 0.01 µM, first compound 0.949 µM): 1.21%
viability, T/C (second compound 0.01 µM, first compound 3 µM): 1.79%
viability, T/C [5]: 92.8%
viability, T/C [6]: 102%
viability, T/C [7]: 34.5%
viability, T/C [8]: 1.59%
viability, T/C (second compound 0.0316 µM, first compound 0.949 µM): 0.68%
viability, T/C (second compound 0.0316 µM, first compound 3 µM): 0.88%
viability, T/C [9]: 90.5%
viability, T/C [10]: 69.6%
viability, T/C [11]: 27.7%
viability, T/C [12]: 1.77%
viability, T/C (second compound 0.1 µM, first compound 0.949 µM): 0.43%
viability, T/C (second compound 0.1 µM, first compound 3 µM): 0.69%
viability, T/C [13]: 76%
viability, T/C [14]: 57.9%
viability, T/C [15]: 11.5%
viability, T/C [16]: 0.79%
viability, T/C (second compound 0.316 µM, first compound 0.949 µM): 0.67%
viability, T/C (second compound 0.316 µM, first compound 3 µM): 0.6%
viability, T/C [17]: 62%
viability, T/C [18]: 63.1%
viability, T/C [19]: 3.89%
viability, T/C [20]: 2.43%
viability, T/C (second compound 1 µM, first compound 0.949 µM): 1.4%
viability, T/C (second compound 1 µM, first compound 3 µM): 0.76%

Cc1nc(NC(=O)N2CCCC2C(N)=O)sc1-c1ccnc(C(C)(C)C(F)(F)F)c1 (stereo not given) + CCN1CCN(Cc2ccc(Nc3ncc(F)c(-c4cc(F)c5nc(C)n(C(C)C)c5c4)n3)nc2)CC1
IC50 (second compound 0.01 µM): 101 nM
IC50 (second compound 0.0316 µM): 76.4 nM
IC50 (second compound 0.1 µM): < 31.6 nM
IC50 (second compound 0.316 µM): 36.2 nM
IC50 (second compound 1 µM): 114 nM
viability, T/C [21]: 69.5%
viability, T/C [22]: 46.2%
viability, T/C [23]: 37.3%
viability, T/C [24]: 28.9%
viability, T/C [25]: 12.9%
viability, T/C [26]: 11.6%
viability, T/C [27]: 62.1%
viability, T/C [28]: 41.9%
viability, T/C [29]: 40.9%
viability, T/C [30]: 22.5%
viability, T/C [31]: 15.5%
viability, T/C [32]: 10.9%
viability, T/C [33]: 41.8%
viability, T/C [34]: 43.6%
viability, T/C [35]: 27.4%
viability, T/C [36]: 20.8%
viability, T/C [37]: 14.7%
viability, T/C [38]: 10.1%
viability, T/C [39]: 51.2%
viability, T/C [40]: 39.8%
viability, T/C [41]: 25.9%
viability, T/C [42]: 20.9%
viability, T/C [43]: 17.9%
viability, T/C [44]: 12.4%
viability, T/C [45]: 54.9%
viability, T/C [46]: 50.5%
viability, T/C [47]: 42.4%
viability, T/C [48]: 24.1%
viability, T/C [49]: 18.7%
viability, T/C [50]: 11.3%

Cn1nccc1Nc1nccc(-c2ccn(C(CO)c3ccc(Cl)c(F)c3)c(=O)c2)n1 (stereo not given) + CCN1CCN(Cc2ccc(Nc3ncc(F)c(-c4cc(F)c5nc(C)n(C(C)C)c5c4)n3)nc2)CC1
IC50 (second compound 0.01 µM): > 10000 nM
IC50 (second compound 0.0316 µM): > 10000 nM
IC50 (second compound 0.1 µM): > 10000 nM
IC50 (second compound 0.316 µM): > 10000 nM
IC50 (second compound 1 µM): > 10000 nM
viability, T/C [21]: 185%
viability, T/C [22]: 202%
viability, T/C [23]: 192%
viability, T/C [24]: 227%
viability, T/C [25]: 198%
viability, T/C [26]: 135%
viability, T/C [27]: 143%
viability, T/C [28]: 191%
viability, T/C [29]: 216%
viability, T/C [30]: 211%
viability, T/C [31]: 169%
viability, T/C [32]: 133%
viability, T/C [33]: 154%
viability, T/C [34]: 190%
viability, T/C [35]: 181%
viability, T/C [36]: 204%
viability, T/C [37]: 185%
viability, T/C [38]: 132%
viability, T/C [39]: 156%
viability, T/C [40]: 178%
viability, T/C [41]: 210%
viability, T/C [42]: 204%
viability, T/C [43]: 174%
viability, T/C [44]: 106%
viability, T/C [45]: 161%
viability, T/C [46]: 211%
viability, T/C [47]: 224%
viability, T/C [48]: 215%
viability, T/C [49]: 171%
viability, T/C [50]: 86.3%
